Data from patent US20230047224A1 (Biocomposites Limited, priority 2021, published 2023).

Assay: In vitro elution of antibiotics from beads into PBS, quantified by LCMS
Assay type: physicochemical
Settings: beads in 4 mL PBS at 37° C, 1.5 ml exchanged per time point
Description: Three grams of beads 2 were immersed in 4 mL of sterile phosphate-buffered saline (PBS) at 37° C. At each time point, 1.5 ml of the solution was sampled and replenished with fresh PBS. The samples were then syringe filtered using a 0.2 μm 13 mm PES syringe tilter into 2 mL amber glass vials.
Quantification of eluted antibiotics was measured using a single quadrupole mass spectrometer (MS) coupled to a 1260 infinity II series liquid chromatography stack (LCMS) (Agilent Technologies). Depending on the concentration, samples were analysed either neat or diluted to ensure values fell within the linear range of the standard curves. Concentrations were calculated from peak areas using standard curves developed from dilutions of antibiotic prepared to known concentrations. Separation was conducted with a Poroshell 120-SB-C18 column ([…]).
LCMS conditions were Buffer A was 99.9% H2O, 0.1% Heptafluorobutyric Acid and B was 99.9% Acetonitrile (CAN), 0.1% % Heptafluorobutyric Acid. The gradient was held with 30.0% B for 2 min before increasing linearly to 95.0% over 5 min. The 100% B was maintained for a further 1 min before rapid equilibration in 100% A. The flow rate was constant at 0.3 mL/min.
The gas temperature in the source was 325° C. with a flow rate of 9 L/min. The nebulizer pressure was 35 pounds per square inch and the capillary voltage […]. Fragmentor and collision energy voltages were optimized for each antibiotic.

Elution concentration (Day 1): 7046.208 µg/mL
Elution concentration (Day 3): 4693.264 µg/mL
Elution concentration (Day 4): 3130.589 µg/mL
Elution concentration (Day 7): 1972.743 µg/mL
Elution concentration (Day 8): 1058.751 µg/mL
Elution concentration (Day 9): 574.1567 µg/mL
Elution concentration (Day 10): 354.742 µg/mL
Elution concentration (Day 11): 216.352 µg/mL
Elution concentration (Day 14): 135.2563 µg/mL
Elution concentration (Day 15): 109.8367 µg/mL
Elution concentration (Day 17): 15.486 µg/mL
Elution concentration (Day 18): 9.978 µg/mL
Elution concentration (Day 21): 7.125 µg/mL
Elution concentration (Day 22): 5.194 µg/mL
Elution concentration (Day 23): 3.866 µg/mL
Elution concentration (Day 24): 3.277 µg/mL
Elution concentration (Day 25): 2.913 µg/mL
Elution concentration (Day 29): 2.833 µg/mL
Elution concentration (Day 30): 2.598 µg/mL
Elution concentration (Day 31): 2.454 µg/mL
Substance: tobramycin sulfate
